Converted amounts (≈) assume the structure as drawn. The source made the active and inactive calls. No cut-off for these calls is given here.
How the values were obtained:
[1] = Cytotoxicity against HEL cells assessed as alteration in cell morphology; format: cell-based; conditions: human
[2] = Cytotoxicity against E6SM cells assessed as alteration in cell morphology; format: cell-based; conditions: human
Human betaherpesvirus 5 [3] = experiment: Antiviral activity against HCMV AD169 in HEL cells assessed as reduction of virus plaque formation; format: functional, organism-based; conditions: Human betaherpesvirus 5, AD169, HEL
Human alphaherpesvirus 1 [4] = experiment: Antiviral activity against thymidine kinase-deficient HSV1 B2006 in E6SM cells assessed as reduction of virus-induced cytopathogenicity; format: functional, organism-based; conditions: Human alphaherpesvirus 1, B2006, E6SM
Human alphaherpesvirus 2 = experiment: Antiviral activity against HSV2 G in E6SM cells assessed as reduction of virus-induced cytopathogenicity; format: functional, organism-based; conditions: Human alphaherpesvirus 2, G
Human alphaherpesvirus 1 [5] = experiment: Antiviral activity against HSV1 KOS in E6SM cells assessed as reduction of virus-induced cytopathogenicity; format: functional, organism-based; conditions: Human alphaherpesvirus 1, KOS
Human alphaherpesvirus 1 [6] = experiment: Antiviral activity against thymidine kinase deficient HSV1 VMW1837 in E6SM cells assessed as reduction of virus-induced cytopathogenicity; format: functional, organism-based; conditions: Human alphaherpesvirus 1, VMW1837, E6SM
[7] = tested on: Respiratory syncytial virus; experiment: Antiviral activity against Respiratory syncytial virus in HeLa cells at 40 to >400 ug/mL; format: functional, organism-based
[8] = tested on: Vesicular stomatitis virus; experiment: Antiviral activity against VSV in HeLa cells at 40 to >400 ug/mL; format: functional, organism-based
Sindbis virus = experiment: Antiviral activity against Sindbis virus in vero cells assessed as reduction of virus-induced cytopathicity at 40 to >400 ug/mL; format: functional, organism-based
[9] = Inhibition of proliferation of VZV thymidine kinase expressing OSTtk-/VZVtk+ -b cells; format: functional; conditions: Homo sapiens
Punta Toro virus [10] = experiment: Antiviral activity against Punta Toro virus in vero cells assessed as reduction of virus-induced cytopathicity at 20 to >400 ug/mL; format: functional, organism-based
Human alphaherpesvirus 3 [11] = experiment: Antiviral activity against thymidine kinase deficient VZV YS in HEL cells assessed as reduction of virus plaque formation; format: functional, organism-based; conditions: Human alphaherpesvirus 3, YS
Coxsackievirus B4 [12] = experiment: Antiviral activity against Coxsackie virus B4 in HeLa cells at 40 to >400 ug/mL; format: functional, organism-based
Human alphaherpesvirus 3 [13] = experiment: Antiviral activity against TK+ VZV OKA in HEL cells assessed as reduction of virus plaque formation; format: functional, organism-based; conditions: Human alphaherpesvirus 3, OKA
[14] = tested on: Mammalian orthoreovirus 1; experiment: Antiviral activity against Reovirus1 in vero cells assessed as reduction of virus-induced cytopathicity at 40 to >400 ug/mL; format: functional, organism-based
[15] = Cytotoxicity against HEL cells; format: cell-based; conditions: human
Human respirovirus 3 = experiment: Antiviral activity against Parainfluenza 3 virus in vero cells assessed as reduction of virus-induced cytopathicity at 20 to >400 ug/mL; format: functional, organism-based
Human alphaherpesvirus 3 [16] = experiment: Antiviral activity against TK+ VZV YS in HEL cells assessed as reduction of virus plaque formation; format: functional, organism-based; conditions: Human alphaherpesvirus 3, YS
OST = experiment: Inhibition of proliferation of thymidine kinase deficient OST cells; format: functional, cell-based; conditions: Homo sapiens
[17] = Inhibition of proliferation of mouse FM3A/O cells; format: functional, cell-based
FM3A [18] = experiment: Inhibition of proliferation of thymidine kinase deficient mouse FM3A cells; format: functional, cell-based
Human betaherpesvirus 5 [19] = experiment: Antiviral activity against HCMV Davis in HEL cells assessed as reduction of virus plaque formation; format: functional, organism-based; conditions: Human betaherpesvirus 5, Davis
[20] = Inhibition of proliferation of VZV thymidine kinase expressing OSTtk-/VZVtk+ -a cells; format: functional; conditions: Homo sapiens
Human alphaherpesvirus 3 [21] = experiment: Antiviral activity against thymidine kinase deficient VZV 07/1 in HEL cells assessed as reduction of virus plaque formation; format: functional, organism-based; conditions: Human alphaherpesvirus 3, 07/1, HEL
FM3A [22] = experiment: Inhibition of proliferation of thymidine kinase deficient mouse FM3A cells expressing HSV2 thymidine kinase; format: functional, cell-based
FM3A [23] = experiment: Inhibition of proliferation of thymidine kinase deficient mouse FM3A cells expressing HSV1 thymidine kinase; format: functional, cell-based
Human alphaherpesvirus 3 [24] = experiment: Antiviral activity against thymidine kinase deficient VZV YS/R in HEL cells assessed as reduction of virus plaque formation; format: functional, organism-based; conditions: Human alphaherpesvirus 3, YS/R
[25] = tested on: Respiratory syncytial virus; experiment: Antiviral activity against Respiratory syncytial virus in HeLa cells; format: functional, organism-based; conditions: human respiratory syncytial virus
Coxsackievirus B4 [26] = experiment: Antiviral activity against Coxsackie virus B4 in HeLa cells; format: functional, organism-based; conditions: Enterovirus B
Punta Toro virus [27] = experiment: Antiviral activity against Punta Toro virus in vero cells; format: functional, organism-based
[28] = tested on: Vesicular stomatitis virus; experiment: Antiviral activity against VSV in HeLa cells; format: functional, organism-based
[29] = tested on: Mammalian orthoreovirus 1; experiment: Antiviral activity against Reovirus1 in vero cells; format: functional, organism-based; conditions: Mammalian orthoreovirus 1, Vero

Row | SMILES | MCC [1] [µM] | MCC [2] [µg/mL] | EC50 (Human betaherpesvirus 5 [3]) [nM] | EC50 (Human alphaherpesvirus 1 [4]) [µg/mL] | EC50 (Human alphaherpesvirus 2) [µg/mL] | EC50 (Human alphaherpesvirus 1 [5]) [µg/mL] | EC50 (Human alphaherpesvirus 1 [6]) [µg/mL] | Activity [7] | Activity [8] | Activity (Sindbis virus) | IC50 [9] [nM] | Activity (Punta Toro virus [10]) | Activity (Coxsackievirus B4 [12]) | EC50 (Human alphaherpesvirus 3 [13]) [nM] | Activity [14] | CC50 [15] [µM] | Activity (Human respirovirus 3) | IC50 (OST) [µM] | EC50 (Human betaherpesvirus 5 [19]) [nM] | IC50 [20] [nM] | other results
1 | C#Cc1cn([C@@H]2O[C@H](CO)[C@@H](O)[C@@H]2O)c(=O)[nH]c1=O | 200 | 400 |  |  |  |  |  |  |  |  |  |  |  |  |  |  |  |  |  |  | 
2 | Nc1nc2c(ncn2COC(CO)CO)c(=O)[nH]1 [GANCICLOVIR] | > 200 | > 100 | 6300 | 0.7 (≈ 2.74 µM) | 0.007 (≈ 0.0274 µM) | 0.002 (≈ 0.00784 µM) | 0.02 (≈ 0.0784 µM) |  |  |  |  |  |  |  |  |  |  |  |  |  | 
3 | C#Cc1cn([C@H]2C[C@H](O)[C@@H](CO)O2)c(=O)[nH]c1=O | > 200 | > 400 | 1200 | 0.7 (≈ 2.78 µM) | 2 (≈ 7.93 µM) | 0.7 (≈ 2.78 µM) | 4 (≈ 15.9 µM) | inactive | inactive | inactive | 160 | inactive | inactive | 160 | inactive | 2.5 | inactive | 23 | 850 | 83 | EC50 (Human alphaherpesvirus 3 [11]): 750 nM; EC50 (Human alphaherpesvirus 3 [16]): 110 nM; IC50 [17]: 180 nM; IC50 (FM3A [18]): ≥ 250 µM; EC50 (Human alphaherpesvirus 3 [21]): 810 nM; IC50 (FM3A [22]): 390 nM; IC50 (FM3A [23]): 130 nM
4 | C[Si](C)(C)C#Cc1cn([C@@H]2O[C@H](CO)[C@@H](O)[C@@H]2O)c(=O)[nH]c1=O | 200 | 400 | > 50000 | 150 (≈ 441 µM) | 2 (≈ 5.88 µM) | 0.7 (≈ 2.06 µM) | 150 (≈ 441 µM) | inactive | inactive | inactive | 1900 | inactive | inactive | 480 | inactive | 127 | inactive | ≥ 176 | > 50000 | 750 | EC50 (Human alphaherpesvirus 3 [24]): > 50 µM; EC50 (Human alphaherpesvirus 3 [16]): 330 nM; IC50 [17]: ≥ 250000 nM; IC50 (FM3A [18]): ≥ 250 µM; EC50 (Human alphaherpesvirus 3 [21]): > 50000 nM; IC50 (FM3A [22]): 290 nM; IC50 (FM3A [23]): 3800 nM
5 | O=c1[nH]c(=O)n([C@@H]2O[C@H](CO)[C@@H](O)C2O)cc1/C=C/Br (single isomer, unassigned) [SORIVUDINE] |  |  |  |  |  |  |  |  |  |  | 200 |  |  |  |  |  |  | ≥ 250 |  | 150 | 
6 | O=c1[nH]c(=O)n([C@H]2C[C@H](O)[C@@H](CO)O2)cc1/C=C/Br [BRIVUDINE] |  | ≥ 400 |  | 40 (≈ 120 µM) | 150 (≈ 450 µM) | 0.02 (≈ 0.06 µM) | 40 (≈ 120 µM) |  |  |  | 350 |  |  |  |  |  |  | ≥ 250 |  | 600 | 
7 | C[Si](C)(C)C#Cc1cn([C@H]2C[C@H](O)[C@@H](CO)O2)c(=O)[nH]c1=O | 200 | > 400 | 1200 | 4 (≈ 12.3 µM) | 7 (≈ 21.6 µM) | 2 (≈ 6.17 µM) | 7 (≈ 21.6 µM) | inactive | inactive | inactive | 200 | inactive | inactive | 260 | inactive | 0.18 | inactive | 23 | 750 | 41 | EC50 (Human alphaherpesvirus 3 [11]): 900 nM; EC50 (Human alphaherpesvirus 3 [16]): 150 nM; IC50 [17]: 230 nM; IC50 (FM3A [18]): ≥ 250 µM; EC50 (Human alphaherpesvirus 3 [21]): 690 nM; IC50 (FM3A [22]): 480 nM; IC50 (FM3A [23]): 160 nM
8 | Nc1nc2c(ncn2COCCO)c(=O)[nH]1 [ACYCLOVIR] |  | > 400 |  | 40 (≈ 178 µM) | 0.07 (≈ 0.311 µM) | 0.02 (≈ 0.0888 µM) | 7 (≈ 31.1 µM) |  |  |  |  |  |  |  |  |  |  |  |  |  | 
9 | O=c1[nH]c(=O)n([C@H]2C[C@H](O)[C@@H](CO)O2)cc1C#CI | 200 | ≥ 100 | 2500 | 2 (≈ 5.29 µM) | 7 (≈ 18.5 µM) | 2 (≈ 5.29 µM) | 7 (≈ 18.5 µM) | inactive | inactive | inactive | 120 | inactive | inactive | 180 | inactive | 0.76 | inactive | 34 | 580 | 63 | EC50 (Human alphaherpesvirus 3 [11]): 780 nM; EC50 (Human alphaherpesvirus 3 [16]): 110 nM; IC50 [17]: 300 nM; IC50 (FM3A [18]): 87 µM; EC50 (Human alphaherpesvirus 3 [21]): 890 nM; IC50 (FM3A [22]): 350 nM; IC50 (FM3A [23]): 160 nM
10 | NC(=O)c1ncn([C@@H]2O[C@H](CO)[C@@H](O)[C@H]2O)n1 [RIBAVIRIN] |  | 400 |  | 20 (≈ 81.9 µM) | 150 (≈ 614 µM) | 70 (≈ 287 µM) | 70 (≈ 287 µM) |  |  |  |  |  |  |  |  |  |  |  |  |  | IC50 [25]: 2 µg/mL (≈ 8.19 µM); IC50 (Coxsackievirus B4 [26]): 20 µg/mL (≈ 81.9 µM); IC50 (Punta Toro virus [27]): 20 µg/mL (≈ 81.9 µM); IC50 [28]: 20 µg/mL (≈ 81.9 µM); IC50 [29]: 0.7 µg/mL (≈ 2.87 µM)
11 | CC(=O)OC[C@H]1O[C@@H](n2cc(C#CI)c(=O)[nH]c2=O)[C@@H](OC(C)=O)[C@@H]1OC(C)=O | 50 | 40 | > 20000 | > 10 | 7 (≈ 13.5 µM) | 20 (≈ 38.4 µM) | > 10 | inactive | inactive | inactive | 3900 | inactive | inactive | 8500 | inactive | 20 | inactive | 5.4 | > 20000 | 3600 | EC50 (Human alphaherpesvirus 3 [11]): > 20000 nM; EC50 (Human alphaherpesvirus 3 [16]): 3100 nM; IC50 [17]: 18000 nM; IC50 (FM3A [18]): 20 µM; EC50 (Human alphaherpesvirus 3 [21]): > 20000 nM; IC50 (FM3A [22]): 960 nM; IC50 (FM3A [23]): 5400 nM
12 | Nc1ccn(C[C@@H](CO)OCP(=O)(O)O)c(=O)n1 [CIDOFOVIR] |  |  | 660 |  |  |  |  |  |  |  |  |  |  |  |  | 121 |  |  | 660 |  | 

From ChEMBL document CHEMBL1143708, “5-alkynyl analogs of arabinouridine and 2'-deoxyuridine: cytostatic activity against herpes simplex virus and varicella-zoster thymidine kinase gene-transfected cells” (J Med Chem, 2007)
